Experimental data: US20250115620A1, “BRIDGED TRICYCLIC CARBAMOYLPYRIDONE COMPOUNDS AND USES THEREOF” (Gilead Sciences, Inc., priority 2022, published 2025)
Where two headings read alike, the source gives them in different places.

Assays:
[1] = in vitro; details: human, uninfected MT-4 cells
[2] = test system: HIV-1 (IIIB); assay: microbe, parasite or virus in culture; format: cell-based; details: Human immunodeficiency virus 1, IIIB, MT4, 120 h, read-out: MT4 EC50
[3] = test system: pLAI reporter virus; assay: microbe, parasite or virus in culture; format: cell-based, HIV; details: Human immunodeficiency virus 1, MT4, 72 h
[4] = HIV-1 (IIIB) in MT-4 cells, 5 days incubation, Cell Titer Glo

| SMILES | CC50 at 5 days [1] [nM] | EC50 [2] [nM] | EC50 ([3]; read-out: RLUC 50% HS EC50) [nM] | EC50 ([3]; read-out: RLUC CCM EC50) [nM] | EC50 [2, 4] [nM] |
| --- | --- | --- | --- | --- | --- |
| C[C@H]1CC[C@]2(CC(CF)=NO2)[C@H]2CN1C(=O)c1c(O)c(=O)c(C(=O)NCc3c(F)cc(F)cc3F)cn12 [Example 19, (3′S,5S,7′R)-3-(fluoromethyl)-12′-hydroxy-3′-methyl-1′,11′-dioxo-N-(2,4,6-trifluorobenzyl)-1′,4′,5′,11′-tetrahydro-3′H,4H,7′H-spiro[isoxazole-5,6′-[2,7]methanopyrido[1,2-a][1,4]diazonine]-10′-carboxamide] | 22900 | 1 | 163 | 0.2 |  |
| C[C@H]1CC[C@]2(CC(C(F)F)=NO2)[C@H]2CN1C(=O)c1c(O)c(=O)c(C(=O)NCc3c(F)cc(F)cc3F)cn12 [Example 20, (3′S,5S,7′R)-3-(difluoromethyl)-12′-hydroxy-3′-methyl-1′,11′-dioxo-N-(2,4,6-trifluorobenzyl)-1′,4′,5′,11′-tetrahydro-3′H,4H,7′H-spiro[isoxazole-5,6′-[2,7]methanopyrido[1,2-a][1,4]diazonine]-10′-carboxamide] | 12400 |  | 168 | 0.3 | 1.2 |
| C[C@H]1CC[C@]2(CC(C(F)F)=NO2)[C@H]2CN1C(=O)c1c(O)c(=O)c(C(=O)NCc3ccc(F)cc3F)cn12 [Example 21, (3′S,5S,7′R)—N-(2,4-difluorobenzyl)-3-(difluoromethyl)-12′-hydroxy-3′-methyl-1′,11′-dioxo-1′,4′,5′,11′-tetrahydro-3′H,4H,7′H-spiro[isoxazole-5,6′-[2,7]methanopyrido[1,2-a][1,4]diazonine]-10′-carboxamide] | 29300 |  | 72.7 | 0.3 | 1.4 |
| CC1=NO[C@]2(CC[C@H](C)N3C[C@H]2n2cc(C(=O)NCc4ccc(F)cc4F)c(=O)c(O)c2C3=O)C1C (stereo partly drawn) [Example 23, (3′S,5R,7′R)—N-(2,4-difluorobenzyl)-12′-hydroxy-3,3′,4-trimethyl-1′,11′-dioxo-1′,4′,5′,11′-tetrahydro-3′H,4H,7′H-spiro[isoxazole-5,6′-[2,7]methanopyrido[1,2-a][1,4]diazonine]-10′-carboxamide] | ≥ 50000 |  | 0.9 | 0.5 | 1.2 |
| CC1=NO[C@]2(CC[C@H](C)N3C[C@H]2n2cc(C(=O)NCc4ccc(F)cc4F)c(=O)c(O)c2C3=O)C1O (stereo partly drawn) [Example 24, (3′S,5S,7′R)—N-(2,4-difluorobenzyl)-4,12′-dihydroxy-3,3′-dimethyl-1′,11′-dioxo-1′,4′,5′,11′-tetrahydro-3′H,4H,7′H-spiro[isoxazole-5,6′-[2,7]methanopyrido[1,2-a][1,4]diazonine]-10′-carboxamide] | ≥ 50000 |  | 4.9 | 2.8 | 5.9 |
| CC1=NO[C@]2(CC[C@H](C)N3C[C@H]2n2cc(C(=O)NCc4ccc(F)cc4F)c(=O)c(O)c2C3=O)C1=O [Example 25, (3′S,5S,7′R)—N-(2,4-difluorobenzyl)-12′-hydroxy-3,3′-dimethyl-1′,4,11′-trioxo-1′,4′,5′,11′-tetrahydro-3′H,4H,7′H-spiro[isoxazole-5,6′-[2,7]methanopyrido[1,2-a][1,4]diazonine]-10′-carboxamide] | ≥ 50000 |  | 58.1 | 34 | ≥ 100 |
| CC1=NO[C@@]2(CC[C@H](C)N3C[C@H]2n2cc(C(=O)NCc4ccc(F)cc4F)c(=O)c(O)c2C3=O)[C@H]1C [Example 26, (3′S,4S,5S,7′R)—N-(2,4-difluorobenzyl)-12′-hydroxy-3,3′,4-trimethyl-1′,11′-dioxo-1′,4′,5′,11′-tetrahydro-3′H,4H,7′H-spiro[isoxazole-5,6′-[2,7]methanopyrido[1,2-a][1,4]diazonine]-10′-carboxamide] | 13000 |  | 9.5 | 0.3 | 0.5 |
| CC1=NO[C@@]2(CC[C@H](C)N3C[C@H]2n2cc(C(=O)NCc4ccc(F)cc4F)c(=O)c(O)c2C3=O)[C@H]1O [Example 28, (3′S,4S,5R,7′R)—N-(2,4-difluorobenzyl)-4,12′-dihydroxy-3,3′-dimethyl-1′,11′-dioxo-1′,4′,5′,11′-tetrahydro-3′H,4H,7′H-spiro[isoxazole-5,6′-[2,7]methanopyrido[1,2-a][1,4]diazonine]-10′-carboxamide] | 47000 |  | 51.5 | 0.4 | 0.9 |
| CC1=NO[C@@]2(CC[C@H](C)N3C[C@H]2n2cc(C(=O)NCc4ccc(F)cc4F)c(=O)c(O)c2C3=O)C1=O [Example 29, (3′S,5R,7′R)—N-(2,4-difluorobenzyl)-12′-hydroxy-3,3′-dimethyl-1′,4,11′-trioxo-1′,4′,5′,11′-tetrahydro-3′H,4H,7′H-spiro[isoxazole-5,6′-[2,7]methanopyrido[1,2-a][1,4]diazonine]-10′-carboxamide] | ≥ 50000 |  | 168 | 0.8 | 1.7 |
| CC1=NO[C@@]2(CC[C@H](C)N3C[C@H]2n2cc(C(=O)NCc4ccc(F)cc4F)c(=O)c(O)c2C3=O)[C@@H]1O [Example 30, (3′S,4R,5R,7′R)—N-(2,4-difluorobenzyl)-4,12′-dihydroxy-3,3′-dimethyl-1′,11′-dioxo-1′,4′,5′,11′-tetrahydro-3′H,4H,7′H-spiro[isoxazole-5,6′-[2,7]methanopyrido[1,2-a][1,4]diazonine]-10′-carboxamide] | 40000 |  | 79.4 | 0.5 | 1.2 |
| CC1=NO[C@@]2(CC[C@H](C)N3C[C@H]2n2cc(C(=O)NCc4c(F)cc(F)cc4F)c(=O)c(O)c2C3=O)[C@H]1O [Example 31, (3′S,4S,5R,7′R)-4,12′-dihydroxy-3,3′-dimethyl-1′,11′-dioxo-N-(2,4,6-trifluorobenzyl)-1′,4′,5′,11′-tetrahydro-3′H,4H,7′H-spiro[isoxazole-5,6′-[2,7]methanopyrido[1,2-a][1,4]diazonine]-10′-carboxamide] | 30000 |  | 47.2 | 0.3 | 1.4 |
| CC1=NO[C@@]2(CC[C@H](C)N3C[C@H]2n2cc(C(=O)NCc4c(F)cc(F)cc4F)c(=O)c(O)c2C3=O)[C@H]1F [Example 32, (3′S,4S,5R,7′R)-4-fluoro-12′-hydroxy-3,3′-dimethyl-1′,11′-dioxo-N-(2,4,6-trifluorobenzyl)-1′,4′,5′,11′-tetrahydro-3′H,4H,7′H-spiro[isoxazole-5,6′-[2,7]methanopyrido[1,2-a][1,4]diazonine]-10′-carboxamide] | 21200 |  | 261 | 0.4 | 1.5 |
| CC1=NO[C@@]2(CC[C@H](C)N3C[C@H]2n2cc(C(=O)NCc4c(F)cc(F)cc4F)c(=O)c(O)c2C3=O)[C@@H]1F [Example 33, (3′S,4R,5R,7′R)-4-fluoro-12′-hydroxy-3,3′-dimethyl-1′,11′-dioxo-N-(2,4,6-trifluorobenzyl)-1′,4′,5′,11′-tetrahydro-3′H,4H,7′H-spiro[isoxazole-5,6′-[2,7]methanopyrido[1,2-a][1,4]diazonine]-10′-carboxamide] | 14100 |  | 342 | 0.4 | 0.7 |
| CC1=NO[C@@]2(CC[C@H](C)N3C[C@H]2n2cc(C(=O)NCc4ccc(F)c(Cl)c4F)c(=O)c(O)c2C3=O)[C@H]1C [Example 34, (3′S,4S,5S,7′R)—N-(3-chloro-2,4-difluorobenzyl)-12′-hydroxy-3,3′,4-trimethyl-1′,11′-dioxo-1′,4′,5′,11′-tetrahydro-3′H,4H,7′H-spiro[isoxazole-5,6′-[2,7]methanopyrido[1,2-a][1,4]diazonine]-10′-carboxamide] | 13600 |  | 76.7 | 0.2 | 0.6 |
| CC1=NO[C@@]2(CC[C@H](C)N3C[C@H]2n2cc(C(=O)NCc4ccc(F)c(Cl)c4F)c(=O)c(O)c2C3=O)[C@H]1O [Example 35, (3′S,4S,5R,7′R)—N-(3-chloro-2,4-difluorobenzyl)-4,12′-dihydroxy-3,3′-dimethyl-1′,11′-dioxo-1′,4′,5′,11′-tetrahydro-3′H,4H,7′H-spiro[isoxazole-5,6′-[2,7]methanopyrido[1,2-a][1,4]diazonine]-10′-carboxamide] | 20300 |  | 102 | 0.3 | 0.9 |
| COC1=NO[C@@]2(CC[C@H](C)N3C[C@H]2n2cc(C(=O)NCc4c(F)cc(F)cc4F)c(=O)c(O)c2C3=O)C1 [Example 36, (3′S,5S,7′R)-12′-hydroxy-3-methoxy-3′-methyl-1′,11′-dioxo-N-(2,4,6-trifluorobenzyl)-1′,4′,5′,11′-tetrahydro-3′H,4H,7′H-spiro[isoxazole-5,6′-[2,7]methanopyrido[1,2-a][1,4]diazonine]-10′-carboxamide] | 19500 |  | 27.6 | 0.2 | 0.7 |
| COC1=NO[C@]2(CC[C@H](C)N3C[C@H]2n2cc(C(=O)NCc4c(F)cc(F)cc4F)c(=O)c(O)c2C3=O)C1 [Example 37, (3′S,5R,7′R)-12′-hydroxy-3-methoxy-3′-methyl-1′,11′-dioxo-N-(2,4,6-trifluorobenzyl)-1′,4′,5′,11′-tetrahydro-3′H,4H,7′H-spiro[isoxazole-5,6′-[2,7]methanopyrido[1,2-a][1,4]diazonine]-10′-carboxamide] | 49900 |  | 8.3 | 0.7 | 1.6 |
